Series [1] is described as follows: Catalase activity by pressure monitoring of evolved O2. It counts as biochemical. Particulars: 25°C, pH 7.5. The method, then: The quantification of the evolved oxygen is frequently used to evaluate the catalase activity. − In this work, the amount of gas evolved during the reaction of the Fe^2+–^ COOH PyNMe 3 complex with hydrogen peroxide was monitored by measuring the pressure changes over time using a previously calibrated Man on the Moon X104 gas evolution kit. For that purpose, 2.5 mL of an aqueous solution of the complex at concentrations of (0.5–2.7) × 10^–4 M buffered at pH 7.5 with TRIS (50 mM) was prepared inside a glovebox, placed in a closed reaction vessel, and purged with nitrogen. Once the pressure readings were stabilized, 0.2–1.2 mL of a 0.12 M aqueous solution of H2O2 (also prepared in TRIS 50 mM at pH 7.4) was added, and the pressure was then measured as a function of time. A blank experiment was conducted with a complex-free solution of a 50 mM TRIS solution with hydrogen peroxide at pH 7.4, where no O2 evolution was detected. The same result was obtained for blank experiments, including also the ligand but not the metal ion or the free metal ion (i.e., Fe^2+, Fe^3+, or Cu^2+) in the absence of the ligand (see Entries 8–12 in Table ). […] Nevertheless, the possible formation of small amounts of CO2, which would introduce a small error in the estimation of evolved O2, cannot be completely ruled out.

For series [2] the following is noted: 0.15 M NaClO4, 298.1 K; ref footnote c, number not printed; cited from earlier work.
On the set-up of series [3]: method as in footnotes c–f, numbers not given. Particulars: Cu2+ complexes/salt/enzyme, literature data for comparison; ref footnotes c–f, numbers not given; cited from earlier work.
The nature of series [4]: Stability constants and speciation of Cu2+ complexes by potentiometric measurements. The class given is physicochemical. Particulars: for pCu: calculated for theoretical solutions; for log K, Cu+L⇄[CuL] (stability constant) / log K, [CuL]+H2O⇄[CuL(OH)]+H: 0.15 M NaClO4, 298.1 K. The method, then:
(§1) Caution! Perchlorate salts are explosive and should be handled with care; such compounds should never be heated as solids. The potentiometric titrations were carried out at 298.1 ± 0.1 K using 0.15 M NaClO4 as the supporting electrolyte. The experimental procedure (buret, potentiometer, cell, stirrer, microcomputer, etc.) has been fully described elsewhere. The acquisition of raw potentiometric data was performed with the computer program PASAT. The reference electrode was a Ag/AgCl electrode in a saturated KCl solution. The glass electrode was calibrated as a hydrogen-ion concentration probe by titration of previously standardized amounts of HCl with CO2-free NaOH solutions, and the equivalent point was determined by Gran’s method, , which gives the standard potential, E̊, and the ionic product of water (pK w = 13.73(1)). The computer program […] was used to calculate the protonation and stability constants. The HYSS program was used to obtain the distribution diagrams. The pH range investigated by using this technique was 2.5–11.0, in accordance with the linear response range of glass electrodes. The solutions were extensively deaerated with an argon flow before the potentiometric runs. A moderate argon flow was maintained throughout the course of the titrations. The different titration curves for each system (at least two) were treated either as a single set or as separate curves without significant variations in the values of the stability constants. Finally, the sets of data were merged and treated simultaneously to give the final stability constants.

For series [5] the following is noted: 0.15 M NaClO4, 298.1 K, ref footnote c, number not printed, cited from earlier work.
Series [6] can be described thus: McCord–Fridovich nitroblue tetrazolium (NBT) SOD activity assay. It counts as biochemical. Particulars: for SOD activity of the Fe2+ complexes (in words): NBT method, under the conditions of this study; for increase in the SOD catalytic constant of the Cu2+ complex on functionalization of the pyridine: relative to Cu2+ complexes of HPyNH3 or HPyNMe3; for k cat (SOD catalytic constant): metal complexes, calculated from IC50 as kNBT[NBT]/IC50, pH 7.4, [NBT] = 59 μM. The text has this: First, the SOD activity of the complexes was studied by means of the nitroblue tetrazolium (NBT) method, also known as McCord–Fridovich method. This is a widely used, indirect method based on the side production of superoxide anions by the xanthine oxidase enzyme and their capture by the NBT dye to give formazan. − A compound displaying SOD activity decreases the flow of superoxide radical anions and, thereby, the production of formazan (see the representation of the fitting of the data in Figures and S13–S16). Thus, by following the absorption band of formazan at 560 nm, the SOD activity of the studied mimetic can be quantified. Blank experiments were recorded with the ligands alone without observing any effect. The values of IC50, defined as the amount of the compound necessary for achieving 50% inhibition of NBT reduction to formazan by the superoxide anion, together with the catalytic constants (k cat), were obtained as indicated in the Experimental Section and are summarized in Table .
The SOD-like activity was determined by using the nitroblue tetrazolium (NBT) method, which despite its limitations is frequently used to estimate the activity of SOD mimetics. − The assays were carried out in a pH = 7.4 50 mM HEPES buffer at 298 K. The xanthine (2.2 × 10^–4 M) and xanthine oxidase (ca. 3 UN) system was used to generate a reproducible and constant flux of superoxide anions. […] Data in the absence of the complex were used as a reference. […] The percentage of inhibition of the NBT reduction to formazan was used as a measure of the SOD activity of the compounds. The concentration of the complex required to yield 50% inhibition of NBT reduction (IC50) was determined from a plot of percentage inhibition versus complex concentration. The IC50 data were calculated from the mean values of (at least) three independent measurements. The catalytic constant was calculated from the IC50 using the equation k cat = k NBT[NBT]/IC50 where k NBT = (5.94 ± 0.5) × 10^4 M^–1 s^–1. −

Series [7] is described as follows: Protonation constants by potentiometric and UV–vis titrations. It counts as physicochemical. Particulars: for three protonation constants, span from first to third: potentiometric titrations (third constant of COOMePyNMe3 by UV). The method, then:
as §1
The solvents used were of spectroscopic or equivalent grade. Water was twice distilled and passed through a Millipore apparatus. The pH values were measured with a Metrohm 713 pH meter, and adjustments of the hydrogen-ion concentration of the solutions were made with diluted HCl and NaOH solutions. UV–vis absorption spectra were recorded between pH 2 and 11 with an Agilent 8453 spectrometer. The resulting data from the titrations were used to calculate the third protonation constant of ^ COOMe PyNMe 3 . For this, the HypSpec program was employed, considering all of the absorbance intensities in the range of 250 and 350 nm.

The nature of series [8]: Stability constants and speciation of Fe2+ complexes by potentiometric measurements. The class given is physicochemical. Particulars: for log K, Fe+L⇄[FeL] (stability constant) / log K, [FeL]+H2O⇄[FeL(OH)]+H: 0.15 M NaClO4, 298.1 K; for pFe: calculated for theoretical solutions. The method, then: as §1
The mark [9] stands for this setting: entry 9: no ligand, 2.14 × 10^–4 M FeCl3, [H2O2]0 3.4 × 10^–2 M.
[10] abbreviates: entry 8: no ligand, [Fe2+]0 2.14 × 10^–4 M as Fe(SO4), [H2O2]0 3.4 × 10^–2 M.
[11] abbreviates: 0.15 M NaClO4, 298.1 K, potentiometry.
[12] abbreviates: entry 12: ligand alone 2.14 × 10^–4, no metal ion, [H2O2]0 3.4 × 10^–2 M.
The mark [13] stands for this setting: entry 10: no ligand, [Cu2+]0 2.7 × 10^–4 M as Cu(ClO4)2, [H2O2]0 4.3 × 10^–2 M.

Read-outs that look alike come from different tables or passages of the source. Marks after values point to notes of the source that are not given here.

Regarding `[Cl][Fe]([Cl])[Cl]` [FeCl3], in series [1] (setting [9]), the “TON (moles of H2O2 decomposed by one mol of metal ions)” value came to 0 and the “nO2(g)” value worked out at 0 mol.

`O=S(=O)([O-])[O-].[Fe+2]` [Fe(SO4)]: in series [1] (setting [10]), the “TON (moles of H2O2 decomposed by one mol of metal ions)” value is recorded as 0 and the “nO2(g)” value amounted to 0 mol.

As to `O=C(O)c1cc2nc(c1)CNCCNCCNC2` [^ COOH PyNH 3], in series [2], the “log K, H2L^(2+x)++H^+⇄H3L^(3+x)+ (stepwise protonation constant)” value (shortened to “log K, H2L^(2+x)++H^+⇄H3L^(3+x)+”) is listed as 2.25(2); the “log K, HL^(1+x)++H^+⇄H2L^(2+x)+ (stepwise protonation constant)” value (from here on “log K, HL^(1+x)++H^+⇄H2L^(2+x)+”) was 7.90(1); the “log K, L^x+H^+⇄HL^(1+x)+ (stepwise protonation constant)” value (“log K, L^x+H^+⇄HL^(1+x)+” below) is reported as 10.80(1) ^d; the “log β (∑log K, protonation)” value was 20.95. For the same molecule, the “k cat (SOD catalytic constant)” value in series [3] is listed as 9.7 10^6 M^–1 s^–1. Besides, in series [4] (pH 7.4, [L]=[M]=1 µM), the pCu is recorded as 9.80. Moreover, the pCu in series [4] (pH 7.4, [L]=[M]=10 µM) is 9.30. In series [5], the “log K, Cu+L⇄[CuL] (stability constant)” value is reported as 17.62(2) ^c, ^d and the “log K, [CuL]+H2O⇄[CuL(OH)]+H” value is “–9.07(2) ^c”. In series [5] (listed as COOHPyNH3), the “log K, Cu+L⇄[CuL] (stability constant)” value is on record as 17.62. Besides, in series [6], the “SOD activity of the Fe2+ complexes (in words)” value (“SOD activity” below) is “negligible SOD activity” and the “increase in the SOD catalytic constant of the Cu2+ complex on functionalization of the pyridine” value (from here on “increase in the SOD catalytic constant”) is 6- to 10 fold.

`COC(=O)c1cc2nc(c1)CN(C)CCN(C)CCN(C)C2` [^ COOMe PyNMe 3]: the “log K, H2L^(2+x)++H^+⇄H3L^(3+x)+” value in series [7] (0.15 M NaClO4, 298.1 K, obtained by UV–vis spectroscopic titration) is 2.48(1) ^f. Further, in series [7] (setting [11]), the “log K, HL^(1+x)++H^+⇄H2L^(2+x)+” value is 7.03(1) and the “log K, L^x+H^+⇄HL^(1+x)+” value was 10.57(2). Further, the “three protonation constants, span from first to third” value in series [7] was 10.57 to 2.48 logarithmic units. Also, in series [8], the “log K, Fe+L⇄[FeL] (stability constant)” value was 9.46(2) and the “log K, [FeL]+H2O⇄[FeL(OH)]+H” value is recorded as “–8.18(5)”. In addition, the pFe in series [8] (pH 7.4, [L]=[M]=1 µM) is given as 6.27. Moreover, in series [8] (pH 7.4, [L]=[M]=10 µM), the pFe is given as 5.66. In addition, in series [4], the “log K, Cu+L⇄[CuL] (stability constant)” value is 16.84(3) and the “log K, [CuL]+H2O⇄[CuL(OH)]+H” value was “–8.26(4)”. Further, the pCu in series [4] (pH 7.4, [L]=[M]=1 µM) is recorded as 9.79. For the same molecule, the pCu in series [4] (pH 7.4, [L]=[M]=10 µM) was 9.29. Moreover, in series [6], the “SOD activity” value was “negligible SOD activity”, the “k cat (SOD catalytic constant)” value is listed as 40.3 10^6 M^–1 s^–1 and the “increase in the SOD catalytic constant” value came to 34 fold.

For the molecule `CN1CCN(C)Cc2cc(C(=O)O)cc(n2)CN(C)CC1` [^ COOH PyNMe 3], in series [7] (0.15 M NaClO4, 298.1 K), the “log β (∑log K, protonation)” value turned out to be 21.53. In series [7] (setting [11]), the “log K, H2L^(2+x)++H^+⇄H3L^(3+x)+” value is 2.90(4); the “log K, HL^(1+x)++H^+⇄H2L^(2+x)+” value is on record as 7.73(3); the “log K, L^x+H^+⇄HL^(1+x)+” value is 10.90(2). In addition, the “three protonation constants, span from first to third” value in series [7] was in the range of 10.90 to 2.90 logarithmic units. Moreover, in series [8], the “log K, Fe+L⇄[FeL] (stability constant)” value is 10.02(2) and the “log K, [FeL]+H2O⇄[FeL(OH)]+H” value is “–9.44(4)”. Moreover, the pFe in series [8] (pH 7.4, [L]=[M]=1 µM) is on record as 6.22. Moreover, the pFe in series [8] (pH 7.4, [L]=[M]=10 µM) is listed as 5.58. Further, the “free Fe2+” value in series [8] (pH 7.5, [COOHPyNMe3]=[Fe2+]=50 µM, 0.15 M NaClO4 (Figure S19)) was found to be 10.9%. The “free Fe2+” value in series [8] (pH 7.5, [COOHPyNMe3]=[Fe2+]=270 µM, 0.15 M NaClO4 (Figure S18)) is listed as 4.8%. In series [4], the “log K, Cu+L⇄[CuL] (stability constant)” value is 16.35(4) and the “log K, [CuL]+H2O⇄[CuL(OH)]+H” value was “–9.24(7)”. For the same molecule, in series [4] (listed as COOHPyNMe3), the “log K, Cu+L⇄[CuL] (stability constant)” value amounted to 16.35. In series [4] (pH 7.4, [L]=[M]=1 µM), the pCu is listed as 9.18. Also, the pCu in series [4] (pH 7.4, [L]=[M]=10 µM) was 8.68. For the same molecule, in series [1] (setting [12]), the “TON (moles of H2O2 decomposed by one mol of metal ions)” value is 0 and the “nO2(g)” value amounted to 0 mol. In addition, in series [6], the “SOD activity” value is listed as “negligible SOD activity”, the “k cat (SOD catalytic constant)” value was 12.3 10^6 M^–1 s^–1 and the “increase in the SOD catalytic constant” value is 6- to 10 fold.

With `[Cu+2].[O-][Cl+3]([O-])([O-])[O-].[O-][Cl+3]([O-])([O-])[O-]` [Cu(ClO4)2], the “k cat (SOD catalytic constant)” value in series [3] is 2.7 10^6 M^–1 s^–1. Moreover, in series [1] (setting [13]), the “TON (moles of H2O2 decomposed by one mol of metal ions)” value came to 0 and the “nO2(g)” value turned out to be 0 mol.

Source of the values: publication PMC12458691 (Inorganic Chemistry, 2025).
